Test results reported in US5430169A, “Method for preparation of sphingoid bases” (The United States of America represented by the Department …, priority 1994, dated 1995).
“Also recorded” adds a separate entry of the source.

Legend:
[1] = system: protein kinase C; conditions: in words; cited from earlier work
[2] = system: S-1-P aldolase; test: time dependent (irreversible) inhibition of S-1-P aldolase; format: biochemical; conditions: mode of inhibition, in words
[3] = biological target: T1, rat liver aldolase (Rattus norvegicus, UniProt Q8CHN6); test: in vitro biological evaluation: inhibition of rat liver aldolase; format: biochemical; conditions: read-out: IC50, inhibited rat liver aldolase
T1 construct: from tissue; host or cells: rat liver
T1 sequence (Q8CHN6 1-568): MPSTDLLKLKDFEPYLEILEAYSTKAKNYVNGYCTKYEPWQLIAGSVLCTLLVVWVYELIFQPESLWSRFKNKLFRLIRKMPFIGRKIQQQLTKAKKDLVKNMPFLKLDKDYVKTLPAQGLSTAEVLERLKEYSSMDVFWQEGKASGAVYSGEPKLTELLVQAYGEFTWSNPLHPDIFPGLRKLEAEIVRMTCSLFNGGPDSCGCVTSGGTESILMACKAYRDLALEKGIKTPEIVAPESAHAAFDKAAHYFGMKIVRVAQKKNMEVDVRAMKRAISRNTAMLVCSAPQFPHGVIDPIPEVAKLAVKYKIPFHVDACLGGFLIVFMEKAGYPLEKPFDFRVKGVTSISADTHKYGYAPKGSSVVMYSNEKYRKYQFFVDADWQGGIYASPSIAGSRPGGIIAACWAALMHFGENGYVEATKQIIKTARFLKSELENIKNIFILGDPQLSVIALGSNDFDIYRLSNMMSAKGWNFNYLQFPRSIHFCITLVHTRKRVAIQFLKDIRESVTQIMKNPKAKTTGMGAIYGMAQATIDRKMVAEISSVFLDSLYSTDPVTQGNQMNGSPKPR

[4] = system: S-1-P aldolase; conditions: mode of inhibition, in words; cited from earlier work
[5] = system: permeabilized cells; conditions: cellular level / environments with other cellular components, e.g.; cited from earlier work
[6] = system: permeabilized smooth muscle cells; conditions: IP3-sensitive and IP3-insensitive pools; cited from earlier work
[7] = system: Swiss 3T3 fibroblasts; conditions: in words; cited from earlier work

Row | Compound | time dependent (irreversible) inhibitor of S-1-P aldolase [2] | IC50 [3] | other results
1 | CCCCCCCCCCCCC/C=C/[C@@H](O)[C@@H](N)CO [sphingosine] |  |  | inhibition of protein kinase C [1]: potent and specific inhibitor
2 | C=CC(N)COP(=O)(O)O (stereo not shown) [Example 5, 2-vinyl ethanolamine-O-phosphate] | time dependent (irreversible) inhibitor | 1.1 µM | 
3 | CCCCCCCCCCCCCCCC(O)C(N)CP(=O)(O)O (stereo not shown) [DS-1-P, dihydrosphingosine-1-phosphonate] |  |  | inhibition of the S-1-P aldolase reaction [4]: competitive inhibition; toxicity [5]: highly toxic; also recorded: well known toxin
4 | CCCCCCCCCCCCC/C=C/[C@@H](O)[C@@H](N)COP(=O)(O)O [Example S-1-P, sphingosine-1-phosphate] |  |  | translocation of calcium from intracellular stores [6]: rapid translocation of calcium from intracellular stores; mitogenic effect in Swiss 3T3 fibroblasts [7]: very potent mitogen
5 | C=CC(N)(COP(=O)(O)O)C(O)CCCCCCCCCCCCCCC (stereo not shown) [Example 4, 2-vinyl dihydrosphingosine-1-phosphate] | time dependent (irreversible) inhibitor | 2.4 µM | 
6 | CCCCCCCCCCCCCCCC(O)C(COP(=O)(O)O)NN (stereo not shown) [Example 3, 2-hydrazino deamino dihydrosphingosine-1-phosphate] |  | 0.8 µM | 
